Source: PMC7419507, “In vitro Cas9-assisted editing of modular polyketide synthase genes to produce desired natural product derivatives” (Nature Communications, 2020)
Several values for one entry are separate records, joined by “and”; a condition that tells them apart may be missing. Equal values may be shown once.

Experiments:
T lymphoma Jurkat cells = assay: Cytotoxicity assay (CellTiter-Glo, 72 h), Jurkat; assay type: cell-based; conditions: raw data (replicates)
Summary of the method: (§1)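 Following 4 h attachment at 1000 cells/well, the three lines received serially halved compound doses (DMSO 0.5%) for 72 h at 37 °C under 5% CO2, with cell viability then determined by CellTiter-Glo.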

[1] = test system: Jurkat, SKOV-3 and MESO-1 cells; assay: Cytotoxicity assay, statements for all tested cell lines together; assay type: cell-based; conditions: Jurkat, SKOV-3 and MESO-1 cells, 72 h
Summary of the method: as §1

[2] = Cytotoxicity assay (CellTiter-Glo, 72 h), SKOV-3; assay type: cell-based, human; conditions: human, raw replicate data, read-out: SKOV3 viability (%)
Summary of the method: as §1

[3] = test system: human ovarian adenocarcinoma SKOV-3 cells; assay: Cytotoxicity assay (CellTiter-Glo, 72 h), SKOV-3; assay type: cell-based; conditions: raw replicate data
Summary of the method: as §1

CO[C@@H]1C[C@H](C[C@@H](C)[C@@H]2CC(=O)[C@H](C)/C=C(\C)[C@@H](O)[C@@H](OC)C(=O)[C@H](C)C[C@H](C)/C=C/C=C/C=C(\C)[C@H](O)C[C@@H]3CC[C@@H](C)[C@@](O)(O3)C(=O)C(=O)N3CCCC[C@H]3C(=O)O2)CC[C@H]1O [Compound 17, (16R)-16-O-demethyl rapamycin]
Jurkat viability (%) (T lymphoma Jurkat cells; conc 9.53674e-5 uM): 104.2% and 104.9%
Jurkat viability (%) (T lymphoma Jurkat cells; conc 0.000190735 uM): 98.3% and 107.4%
Jurkat viability (%) (T lymphoma Jurkat cells; conc 0.00038147 uM): 107.2% and 107.3%
Jurkat viability (%) (T lymphoma Jurkat cells; conc 0.000762939 uM): 99.4%
Jurkat viability (%) (T lymphoma Jurkat cells; conc 0.00152588 uM): 99.3% and 104.0%
Jurkat viability (%) (T lymphoma Jurkat cells; conc 0.00305176 uM): 97.0% and 104.1%
Jurkat viability (%) (T lymphoma Jurkat cells; conc 0.00610352 uM): 89.4% and 97.3%
Jurkat viability (%) (T lymphoma Jurkat cells; conc 0.012207 uM): 81.9% and 78.2%
Jurkat viability (%) (T lymphoma Jurkat cells; conc 0.0244141 uM): 72.3% and 67.5%
Jurkat viability (%) (T lymphoma Jurkat cells; conc 0.0488281 uM): 50.1% and 57.1%
Jurkat viability (%) (T lymphoma Jurkat cells; conc 0.0976562 uM): 39.4% and 41.6%
Jurkat viability (%) (T lymphoma Jurkat cells; conc 0.195312 uM): 33.7% and 37.9%
Jurkat viability (%) (T lymphoma Jurkat cells; conc 0.390625 uM): 35.4% and 34.2%
Jurkat viability (%) (T lymphoma Jurkat cells; conc 0.78125 uM): 31.2% and 32.6%
Jurkat viability (%) (T lymphoma Jurkat cells; conc 1.5625 uM): 28.2% and 33.2%
Jurkat viability (%) (T lymphoma Jurkat cells; conc 3.125 uM): 27.7% and 29.4%
Jurkat viability (%) (T lymphoma Jurkat cells; conc 6.25 uM): 29.5%
Jurkat viability (%) (T lymphoma Jurkat cells; conc 12.5 uM): 26.8%
Jurkat viability (%) (T lymphoma Jurkat cells; conc 25 uM): 30.6% and 29.0%
Jurkat viability (%) (T lymphoma Jurkat cells; conc 50 uM): 21.7% and 20.3%
Effect on cell viability, in words [1]: slightly suppressed the cell viabilities
viability at 72 h, 9.53674e-05 uM ([2]; SKOV-3 cells (ovarian adenocarcinoma), conc 9.53674e-5 uM): 108%
viability at 72 h, 0.000190735 uM ([2]; SKOV-3 cells (ovarian adenocarcinoma), conc 0.000190735 uM): 88.6%
viability at 72 h, 0.00038147 uM ([2]; SKOV-3 cells (ovarian adenocarcinoma), conc 0.00038147 uM): 109%
viability at 72 h, 0.000762939 uM ([2]; SKOV-3 cells (ovarian adenocarcinoma), conc 0.000762939 uM): 108%
viability at 72 h, 0.00152588 uM ([2]; SKOV-3 cells (ovarian adenocarcinoma), conc 0.00152588 uM): 108%
viability at 72 h, 0.00305176 uM ([2]; SKOV-3 cells (ovarian adenocarcinoma), conc 0.00305176 uM): 107%
viability at 72 h, 0.00610352 uM ([2]; SKOV-3 cells (ovarian adenocarcinoma), conc 0.00610352 uM): 103%
viability at 72 h, 0.012207 uM ([2]; SKOV-3 cells (ovarian adenocarcinoma), conc 0.012207 uM): 97.7%
viability at 72 h, 0.0244141 uM ([2]; SKOV-3 cells (ovarian adenocarcinoma), conc 0.0244141 uM): 95.9%
viability at 72 h, 0.0488281 uM ([2]; SKOV-3 cells (ovarian adenocarcinoma), conc 0.0488281 uM): 84.3%
viability at 72 h, 0.0976562 uM ([2]; SKOV-3 cells (ovarian adenocarcinoma), conc 0.0976562 uM): 77.9%
viability at 72 h, 0.195312 uM ([2]; SKOV-3 cells (ovarian adenocarcinoma), conc 0.195312 uM): 70%
viability at 72 h, 0.390625 uM ([2]; SKOV-3 cells (ovarian adenocarcinoma), conc 0.390625 uM): 78.2%
viability at 72 h, 12.5 uM ([2]; SKOV-3 cells (ovarian adenocarcinoma), conc 12.5 uM): 65%
viability at 72 h, 25 uM ([2]; SKOV-3 cells (ovarian adenocarcinoma), conc 25 uM): 64.3%
viability at 72 h, 50 uM ([2]; SKOV-3 cells (ovarian adenocarcinoma), conc 50 uM): 62.5%
viability at 72 h, 0.78125 uM ([2]; SKOV-3 ovarian adenocarcinoma cells, conc 0.78125 uM): 71.6%
viability at 72 h, 1.5625 uM ([2]; SKOV-3 ovarian adenocarcinoma cells, conc 1.5625 uM): 72.2%
viability at 72 h, 3.125 uM ([2]; SKOV-3 ovarian adenocarcinoma cells, conc 3.125 uM): 67.3%
viability at 72 h, 6.25 uM ([2]; SKOV-3 ovarian adenocarcinoma cells, conc 6.25 uM): 66.2%
SKOV3 viability (%) ([3]; conc 9.53674e-5 uM): 109.3% and 114.5%
SKOV3 viability (%) ([3]; conc 0.000190735 uM): 90.8% and 99.6%
SKOV3 viability (%) ([3]; conc 0.00038147 uM): 115.4% and 113.9%
SKOV3 viability (%) ([3]; conc 0.000762939 uM): 109.0% and 102.3%
SKOV3 viability (%) ([3]; conc 0.00152588 uM): 112.3% and 106.1%
SKOV3 viability (%) ([3]; conc 0.00305176 uM): 107.9%
SKOV3 viability (%) ([3]; conc 0.00610352 uM): 101.8% and 106.6%
SKOV3 viability (%) ([3]; conc 0.012207 uM): 96.6% and 104.0%
SKOV3 viability (%) ([3]; conc 0.0244141 uM): 95.8%
SKOV3 viability (%) ([3]; conc 0.0488281 uM): 79.4% and 88.5%
SKOV3 viability (%) ([3]; conc 0.0976562 uM): 86.2% and 76.7%
SKOV3 viability (%) ([3]; conc 0.195312 uM): 69.8% and 72.4%
SKOV3 viability (%) ([3]; conc 0.390625 uM): 81.8% and 79.5%
SKOV3 viability (%) ([3]; conc 0.78125 uM): 70.7%
SKOV3 viability (%) ([3]; conc 1.5625 uM): 65.2% and 67.1%
SKOV3 viability (%) ([3]; conc 3.125 uM): 69.1%
SKOV3 viability (%) ([3]; conc 6.25 uM): 64.7% and 66.1%
SKOV3 viability (%) ([3]; conc 12.5 uM): 62.1% and 61.3%
SKOV3 viability (%) ([3]; conc 25 uM): 65.7% and 67.6%
SKOV3 viability (%) ([3]; conc 50 uM): 57.2% and 61.6%
